Experimental data reported in ChEMBL document CHEMBL3734679, “Discovery of Azaindole Ureas as a Novel Class of Bacterial Gyrase B Inhibitors” (J Med Chem, 2015).
In brackets after ≈: the same amount, converted by molar mass.

Key:
DNA gyrase subunit B = DNA gyrase subunit B (Staphylococcus aureus, UniProt P0A0K8); test: Inhibition of Staphylococcus aureus DNA GyraseB ATPase activity using linear pBR322 DNA as substrate incubated for 30 mins by fluorescence polarization analysis
Staphylococcus aureus [1] = test: Antibacterial activity against methicillin-susceptible Staphylococcus aureus 42 after 18 to 20 hrs by broth microdilution assay; format: functional
Staphylococcus aureus [2] = test: Antibacterial activity against ciprofloxacin-resistant Staphylococcus aureus 1721 after 18 to 20 hrs by broth microdilution assay; format: functional
Staphylococcus aureus [3] = test: Antibacterial activity against methicillin-resistant Staphylococcus aureus 1118 after 18 to 20 hrs by broth microdilution assay; format: functional
Enterococcus faecalis = test: Antibacterial activity against Enterococcus faecalis after 18 to 20 hrs by broth microdilution assay; format: functional
Enterococcus faecium = test: Antibacterial activity against Enterococcus faecium after 18 to 20 hrs by broth microdilution assay; format: functional
Streptococcus pneumoniae = test: Antibacterial activity against Streptococcus pneumoniae after 18 to 20 hrs by broth microdilution assay; format: functional

Chain of DNA gyrase subunit B (P0A0K8 whole entry): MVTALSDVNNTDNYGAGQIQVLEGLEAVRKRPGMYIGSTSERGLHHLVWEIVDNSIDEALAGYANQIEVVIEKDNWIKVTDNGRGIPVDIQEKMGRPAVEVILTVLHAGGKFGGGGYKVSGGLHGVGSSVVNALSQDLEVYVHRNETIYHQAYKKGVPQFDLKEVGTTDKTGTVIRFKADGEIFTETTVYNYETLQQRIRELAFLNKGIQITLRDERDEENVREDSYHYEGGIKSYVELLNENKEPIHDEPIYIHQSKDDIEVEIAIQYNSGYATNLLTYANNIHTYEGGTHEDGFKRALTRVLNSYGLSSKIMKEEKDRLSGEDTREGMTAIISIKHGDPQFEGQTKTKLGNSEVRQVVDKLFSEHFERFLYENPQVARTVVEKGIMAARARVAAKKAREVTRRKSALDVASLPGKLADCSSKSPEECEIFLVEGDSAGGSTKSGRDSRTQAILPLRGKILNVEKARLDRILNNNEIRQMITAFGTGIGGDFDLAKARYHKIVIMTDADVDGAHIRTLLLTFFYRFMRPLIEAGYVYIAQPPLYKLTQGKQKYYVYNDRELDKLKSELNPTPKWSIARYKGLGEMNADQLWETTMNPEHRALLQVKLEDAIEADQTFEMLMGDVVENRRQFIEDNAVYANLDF

SMILES	IC50 (DNA gyrase subunit B)	MIC (Staphylococcus aureus [1])	MIC (Staphylococcus aureus [2])	MIC (Staphylococcus aureus [3])	MIC (Enterococcus faecalis)	MIC (Enterococcus faecium)	MIC (Streptococcus pneumoniae)
CCNC(=O)Nc1cn(C2CCN(C)C2=O)c2cc(-c3cccnc3)cnc12 (centres undefined)	5290 nM	–	–	–	–	–	–
CCNC(=O)Nc1cn(-c2ncc(Cl)cn2)c2cc(-c3cccnc3F)cnc12	6060 nM	> 32 µg/mL	> 32 µg/mL	> 32 µg/mL	> 32 µg/mL	> 32 µg/mL	> 32 µg/mL
CCNC(=O)Nc1cn(-c2nccc(C)n2)c2cc(-c3cccnc3)cnc12	140 nM	> 32 µg/mL	> 32 µg/mL	> 32 µg/mL	1 µg/mL (≈ 2.68 µM)	2 µg/mL (≈ 5.36 µM)	4 µg/mL (≈ 10.7 µM)
CCNC(=O)Nc1cn(Cc2ccccc2)c2cc(-c3cccnc3)cnc12	3200 nM	–	–	–	–	–	–
CCNC(=O)Nc1nc(CO)c(-c2ccc[nH]2)s1	2500 nM	128 µg/mL (≈ 481 µM)	–	–	–	–	16 µg/mL (≈ 60.1 µM)
CCNC(=O)Nc1cn(CC(O)CO)c2cc(-c3cccnc3)cnc12 (centres undefined)	1220 nM	–	–	–	–	–	–
CCNC(=O)Nc1cn(-c2ncc(Cl)cn2)c2cc(-c3ccn(C)c(=O)c3)cnc12	262 nM	1 µg/mL (≈ 2.36 µM)	2 µg/mL (≈ 4.72 µM)	1 µg/mL (≈ 2.36 µM)	–	2 µg/mL (≈ 4.72 µM)	1 µg/mL (≈ 2.36 µM)
CCNC(=O)Nc1nc(/C=C/c2cccnc2)c(-c2ccc[nH]2)s1	5800 nM	–	–	–	–	–	–
CCNC(=O)Nc1cn(-c2ncc(OC)cn2)c2cc(-c3cccnc3)cnc12	143 nM	4 µg/mL (≈ 10.3 µM)	8 µg/mL (≈ 20.5 µM)	8 µg/mL (≈ 20.5 µM)	1 µg/mL (≈ 2.57 µM)	8 µg/mL (≈ 20.5 µM)	4 µg/mL (≈ 10.3 µM)
C=CCn1cc(NC(=O)NCC)c2ncc(-c3cccnc3)cc21	430 nM	–	–	–	–	–	–
CCNC(=O)Nc1cn(-c2ncccn2)c2cc(-c3ccn(C)c(=O)c3)cnc12	12 nM	2 µg/mL (≈ 5.14 µM)	4 µg/mL (≈ 10.3 µM)	2 µg/mL (≈ 5.14 µM)	–	4 µg/mL (≈ 10.3 µM)	2 µg/mL (≈ 5.14 µM)
CCNC(=O)Nc1cn(-c2ncc(C#N)cn2)c2cc(-c3cccnc3)cnc12	18 nM	> 32 µg/mL	> 32 µg/mL	> 32 µg/mL	> 32 µg/mL	> 32 µg/mL	> 32 µg/mL
CCNC(=O)Nc1cn(-c2ncc(C)c(CCCC(=O)O)n2)c2cc(-c3cccnc3)cnc12	15 nM	8 µg/mL (≈ 17.4 µM)	8 µg/mL (≈ 17.4 µM)	8 µg/mL (≈ 17.4 µM)	–	8 µg/mL (≈ 17.4 µM)	0.5 µg/mL (≈ 1.09 µM)
CCNC(=O)Nc1cn(-c2ncc(C(F)(F)F)cn2)c2cc(-c3cccnc3)cnc12	> 100000 nM	> 32 µg/mL	> 32 µg/mL	> 32 µg/mL	> 32 µg/mL	> 32 µg/mL	> 32 µg/mL
CCNC(=O)Nc1cn(-c2ncccc2C)c2cc(-c3cccnc3)cnc12	1900 nM	> 32 µg/mL	> 32 µg/mL	> 32 µg/mL	> 32 µg/mL	> 32 µg/mL	> 32 µg/mL
CCNC(=O)Nc1cn(C)c2cc(-c3cccnc3)cnc12	1800 nM	–	–	–	–	–	–
CCNC(=O)Nc1cn(-c2nccc(CCO)n2)c2cc(-c3cccnc3)cnc12	9 nM	32 µg/mL (≈ 79.3 µM)	32 µg/mL (≈ 79.3 µM)	32 µg/mL (≈ 79.3 µM)	–	16 µg/mL (≈ 39.7 µM)	8 µg/mL (≈ 19.8 µM)
CCNC(=O)Nc1cn(-c2ncc(Br)cn2)c2cc(-c3cccnc3)cnc12	128 nM	1 µg/mL (≈ 2.28 µM)	2 µg/mL (≈ 4.56 µM)	2 µg/mL (≈ 4.56 µM)	0.25 µg/mL (≈ 0.57 µM)	2 µg/mL (≈ 4.56 µM)	1 µg/mL (≈ 2.28 µM)
CCNC(=O)Nc1cn(C2C=CCCC2)c2cc(-c3cccnc3)cnc12 (centres undefined)	240 nM	–	–	–	–	–	–
C=CC(=O)n1cc(NC(=O)NCC)c2ncc(-c3cccnc3)cc21	280 nM	–	–	–	–	–	–
